Measured values: paper PMC12169615, “Fluorescent 4‑Nitrobenzo-2-oxa-1,3-diazole-Coupled Bile Acids as Probe Substrates of Hepatic and Intestinal Bile Acid Transporters of the Solute Carrier Families SLC10 and SLCO” (Journal of Medicinal Chemistry, 2025)
Values joined by “and” are separate entries in the source; they are usually repeats but may differ in a detail not shown here. Identical values can stand only once.

Experiments:
[1] = Excitation-emission spectra of the 3-NBD-BA; assay type: physicochemical; details: NaCl-transport buffer, 1 pM compound concentration
Method: After the synthesis of this set of unconjugated as well as T- and G-conjugated 3β- and 3α-NBD-BA derivatives, namely 3β-NBD-CA (6a), 3β-NBD-CDCA (6b), 3β-NBD-DCA (6c), 3α-NBD-CA (6d), 3β-NBD-TCA (14a), 3β-NBD-TCDCA (14b), 3α-NBD-TCA (14d), 3β-NBD-GCA (16a), and 3α-NBD-GCA (16d) comprehensive transport studies were conducted with all fluorescent BA listed in Figure . Prior to the transport studies, the excitation and emission spectra of all fluorescent BA derivatives were determined to obtain the optimal emission and excitation wavelengths for subsequent fluorescent measurements at the fluorescence microscope and the fluorescent reader (Figure ). The excitation maxima (ExPeak) were at 468–470 nm and the emission maxima (EmPeak) at 538–540 nm for all fluorescent NBD-BA.
2 Excitation–emission-spectra of the 3-NBD-BA measured in NaCl-transport buffer at 1 pM compound concentration. The excitation (dotted line, ExPeak) and emission (solid line, EmPeak) peak wavelengths (in nm) are indicated for each compound. RFU, relative fluorescence units. […]

mouse mAsbt = target: T1, mouse mAsbt (Mus musculus, UniProt P70172); assay: Quantitative uptake of 3-NBD-BA in carrier-expressing HEK293 cells (fluorescence reader); assay type: cell-based; parameters: stably transfected with the full open reading frames of human NTCP, ASBT, SOAT, OATP1B1, and OATP1B3 as well as mouse mNtcp and mAsbt; expressed in transfected cells; details: mAsbt-HEK293, 25 μM, 37 °C, +Na+ vs -Na+
T1 sequence (P70172 1-348): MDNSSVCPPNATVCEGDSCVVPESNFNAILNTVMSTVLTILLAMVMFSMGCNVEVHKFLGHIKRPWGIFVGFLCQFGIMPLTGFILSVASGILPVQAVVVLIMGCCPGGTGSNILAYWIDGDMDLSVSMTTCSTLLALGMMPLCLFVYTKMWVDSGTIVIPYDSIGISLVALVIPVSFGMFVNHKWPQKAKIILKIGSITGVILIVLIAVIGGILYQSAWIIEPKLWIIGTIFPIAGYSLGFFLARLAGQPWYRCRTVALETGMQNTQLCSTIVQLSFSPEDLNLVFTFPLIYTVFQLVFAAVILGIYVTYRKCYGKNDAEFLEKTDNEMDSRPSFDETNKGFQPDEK
Method: For quantification of the transport activity of the synthesized NBD-BA, all cell lines were seeded on 96 well plates and transport experiments were performed under the same control conditions (-Na^+ control for the SLC10 carriers and nontransfected HEK293 cells for the OATP carriers) as before (Figure ). For each NBD-BA, a substrate concentration of 25 μM was used, and the uptake phase was terminated after 10 min of incubation at 37 °C. […] The transport ratios ranged from 3-fold to 39-fold. In direct comparison, 3α-NBD-TCA (14d) and 3α-NBD-GCA (16d) were transported better than their 3β-analogs 3β-NBD-TCA (14a) and 3β-NBD-GCA (16a), respectively, clearly pointing to a preference for the α-position over the β-position of the 3-NBD-label. In direct comparison between the taurine- or glycine-conjugation of the respective NBD-BA, there was a clear preference for 3α-NBD-GCA (16d) over 3α-NBD-TCA (14d), at least for NTCP and mAsbt, pointing to a favorable substrate recognition for glycine-conjugated NBD-BA.
5 Quantitative uptake experiments with the 3-NBD-BA in HEK293 cells stably expressing the human carriers NTCP, ASBT, SOAT, OATP1B1, and OATP1B3, or the mouse carriers mNtcp and mAsbt. For the SLC10 carriers, all transport experiments were performed in the presence (filled bars) and the absence (hatched bars) of sodium. For the OATP carriers, uptake into carrier-expressing cells (filled bars) was compared to uptake into non-carrier-expressing HEK293 cells (hatched bars). All cell lines were incubated at 37 °C for 10 min with the indicated 3-NBD-BA at 25 μM. Then, cells were washed with PBS and subjected to fluorescence detection. The following fluorescent BA were analyzed: 3α-NBD-TCA (14d), 3β-NBD-TCA (14a), 3α-NBD-GCA (16d), 3β-NBD-GCA (16a), 3β-NBD-TCDCA (14b), 3β-NBD-CDCA (6b), 3β-NBD-DCA (6c), 3α-NBD-CA (6d), and 3β-NBD-CA (6a). Data represent means ± SD of triplicate determinations of representative experiments. […] RFU, relative fluorescence units. TEXT PRINTED IN THE PICTURE: 3α-NBD-TCA (14d): NTCP: 9 X; mNtcp: 30 X; ASBT: 2 X; mAsbt: 14 X | 3ß-NBD-TCA (14a): NTCP: 12 X; mNtcp: 20 X; mAsbt: 18 X | 3α-NBD-GCA (16d): NTCP: 27 X; mNtcp: 26 X; ASBT: 3 X; mAsbt: 39 X | 3ß-NBD-GCA (16a): NTCP: 15 X; mNtcp: 14 X; mAsbt: 5 X | 3ß-NBD-TCDCA (14b): NTCP: 5 X; mNtcp: 3 X; mAsbt: 4 X | 3ß-NBD-CDCA (6b): mNtcp: < 2 X; ASBT: < 2 X; mAsbt: < 2 X; OATP1B1: < 2 X; OATP1B3: < 2 X | 3ß-NBD-DCA (6c): mNtcp: < 2 X; ASBT: < 2 X; mAsbt: < 2 X | 3α-NBD-CA (6d): mNtcp: 2 X; mAsbt: 4 X | 3ß-NBD-CA (6a): NTCP: 2 X; mNtcp: 2 X; mAsbt: 2 X DOUBTS OF THE COPYIST ABOUT THIS PICTURE: The picture prints no panel letters, so the chart titles (NTCP, mNtcp, ASBT, mAsbt, OATP1B1, OATP1B3) are written in front of the values as the target. / Substance labels: the sign after '3' is printed like 'ß' and may be meant as 'β'. / The 'ns' marks and significance asterisks were left out as statistics. The SOAT chart prints only 'ns'.

Row | Molecule | Emission peak wavelength (EmPeak) [1] | Excitation peak wavelength (ExPeak) [1] | Specific transport ratio mAsbt (25µM/10 min uptake) (mouse mAsbt)
1 | C[C@H](CCC(=O)O)[C@H]1CC[C@H]2[C@@H]3[C@H](O)C[C@@H]4C[C@@H](Nc5ccc([N+](=O)[O-])c6nonc56)CC[C@]4(C)[C@H]3C[C@H](O)[C@]12C [6a, 7α,12α-Dihydroxy-3β-[(7-nitro-2,1,3-benzoxadiazol-4-yl)amino]-5β-cholan-24-oate] | 538 nm | 468 nm | 2 x-fold and 2x x-fold
2 | C[C@H](CCC(=O)NCCS(=O)(=O)[O-])[C@H]1CC[C@H]2[C@@H]3[C@H](O)C[C@@H]4C[C@@H](Nc5ccc([N+](=O)[O-])c6nonc56)CC[C@]4(C)[C@H]3C[C@H](O)[C@]12C.[Na+] [14a] | 538 nm | 468 nm | 18x x-fold
3 | 7α-Hydroxy-3β-[(7-nitro-2,1,3-benzoxadiazol-4-yl)amino]-5β-cholan-24-oate [6b] | 538 nm | 468 nm | <2x x-fold
4 | C[C@H](CCC(=O)NCC(=O)O)[C@H]1CC[C@H]2[C@@H]3[C@H](O)C[C@@H]4C[C@@H](Nc5ccc([N+](=O)[O-])c6nonc56)CC[C@]4(C)[C@H]3C[C@H](O)[C@]12C [16a] | 538 nm | 468 nm | 5x x-fold
5 | 12α-Hydroxy-3β-[(7-nitro-2,1,3-benzoxadiazol-4-yl)amino]-5β-cholan-24-oate [6c] | 538 nm | 468 nm | <2x x-fold
6 | C[C@H](CCC(=O)NCCS(=O)(=O)[O-])[C@H]1CC[C@H]2[C@@H]3[C@H](O)C[C@@H]4C[C@H](Nc5ccc([N+](=O)[O-])c6nonc56)CC[C@]4(C)[C@H]3C[C@H](O)[C@]12C.[Na+] [14d] | 538 nm | 468 nm | 14x x-fold
7 | C[C@H](CCC(=O)NCC(=O)O)[C@H]1CC[C@H]2[C@@H]3[C@H](O)C[C@@H]4C[C@H](Nc5ccc([N+](=O)[O-])c6nonc56)CC[C@]4(C)[C@H]3C[C@H](O)[C@]12C [16d] | 538 nm | 468 nm | 39x x-fold
8 | C[C@H](CCC(=O)O)[C@H]1CC[C@H]2[C@@H]3[C@H](O)C[C@@H]4C[C@H](Nc5ccc([N+](=O)[O-])c6nonc56)CC[C@]4(C)[C@H]3C[C@H](O)[C@]12C [6d, 7α,12α-Dihydroxy-3α-[(7-nitro-2,1,3-benzoxadiazol-4-yl)amino]-5β-cholan-24-oate] | 538 nm | 468 nm | 4 x-fold and 4x x-fold
